This is an account of results in patent publication US20240383875A1, “Benzimidazole Pyridine Derivatives” (Hoffmann-La Roche Inc., priority 2022, published 2024).

pIC50: −log10 of the molar value.

Format in all cases: biochemical
The target of one experiment is SIK1 (Homo sapiens, UniProt P57059). In words: Enzymatic activity assay SIK1, RapidFire mass spectrometry (phosphorylation of CHK-peptide). The settings on record: RapidFire MS, inhibition of SIK1; read-out: SIK1 RF IC50. In outline: (§1)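 Human SIK1/2/3, 5/0.5/1.5 nM; 12.5 mM HEPES pH 7.0, 10 mM Mg acetate, 0.005% BSA. 30 min cpd pre-inc, + CHK-peptide (10 μM soln) + ATP (100 μM soln), 45 min RT. Formic acid stop; RF-MS phospho ratio; IC50.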

The target of a further experiment is SIK2 (Homo sapiens, UniProt Q9H0K1). In words: Enzymatic activity assay SIK2, RapidFire mass spectrometry (phosphorylation of CHK-peptide). The settings on record: RapidFire MS, inhibition of SIK2; read-out: SIK2 RF IC50. A digest of the protocol:
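Read-out is the summed phospho-species fraction of CHK-peptide by RapidFire mass spectrometry, normalized between DMSO and 1 μM YKL-05-099. The reaction used 0.5 nM SIK2, 100 μM ATP and 10 μM peptide solutions in HEPES pH 7.0/10 mM magnesium acetate for 45 min at ambient temperature.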

In the next experiment the target is SIK3 (Homo sapiens, UniProt Q9Y2K2). Description: Enzymatic activity assay SIK3, RapidFire mass spectrometry (phosphorylation of CHK-peptide). The settings on record: RapidFire MS, inhibition of SIK3; read-out: SIK3 RF IC50. A digest of the protocol:
as §1

SIK1, sequence (P57059 whole entry): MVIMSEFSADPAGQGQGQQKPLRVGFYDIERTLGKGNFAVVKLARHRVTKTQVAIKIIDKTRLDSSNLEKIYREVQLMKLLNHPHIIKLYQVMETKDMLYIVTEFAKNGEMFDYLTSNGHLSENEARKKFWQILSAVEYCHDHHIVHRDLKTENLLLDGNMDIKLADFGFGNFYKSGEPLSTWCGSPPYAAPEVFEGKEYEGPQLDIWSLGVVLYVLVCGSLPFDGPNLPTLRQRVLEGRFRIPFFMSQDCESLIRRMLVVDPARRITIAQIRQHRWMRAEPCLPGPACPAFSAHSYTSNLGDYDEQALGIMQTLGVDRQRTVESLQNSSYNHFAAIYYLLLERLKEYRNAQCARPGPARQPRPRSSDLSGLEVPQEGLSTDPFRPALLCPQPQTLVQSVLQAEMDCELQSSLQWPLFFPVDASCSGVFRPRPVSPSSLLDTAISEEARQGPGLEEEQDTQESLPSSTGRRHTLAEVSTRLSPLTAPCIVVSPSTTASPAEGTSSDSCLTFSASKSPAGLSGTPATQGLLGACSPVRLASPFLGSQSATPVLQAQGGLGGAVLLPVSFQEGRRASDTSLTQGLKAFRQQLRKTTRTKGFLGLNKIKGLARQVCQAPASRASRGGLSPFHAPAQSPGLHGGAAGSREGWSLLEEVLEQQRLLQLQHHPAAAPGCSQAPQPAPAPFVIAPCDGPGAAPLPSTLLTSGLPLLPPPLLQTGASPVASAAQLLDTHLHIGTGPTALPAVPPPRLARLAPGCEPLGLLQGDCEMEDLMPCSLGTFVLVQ
SIK3, sequence (Q9Y2K2 whole entry): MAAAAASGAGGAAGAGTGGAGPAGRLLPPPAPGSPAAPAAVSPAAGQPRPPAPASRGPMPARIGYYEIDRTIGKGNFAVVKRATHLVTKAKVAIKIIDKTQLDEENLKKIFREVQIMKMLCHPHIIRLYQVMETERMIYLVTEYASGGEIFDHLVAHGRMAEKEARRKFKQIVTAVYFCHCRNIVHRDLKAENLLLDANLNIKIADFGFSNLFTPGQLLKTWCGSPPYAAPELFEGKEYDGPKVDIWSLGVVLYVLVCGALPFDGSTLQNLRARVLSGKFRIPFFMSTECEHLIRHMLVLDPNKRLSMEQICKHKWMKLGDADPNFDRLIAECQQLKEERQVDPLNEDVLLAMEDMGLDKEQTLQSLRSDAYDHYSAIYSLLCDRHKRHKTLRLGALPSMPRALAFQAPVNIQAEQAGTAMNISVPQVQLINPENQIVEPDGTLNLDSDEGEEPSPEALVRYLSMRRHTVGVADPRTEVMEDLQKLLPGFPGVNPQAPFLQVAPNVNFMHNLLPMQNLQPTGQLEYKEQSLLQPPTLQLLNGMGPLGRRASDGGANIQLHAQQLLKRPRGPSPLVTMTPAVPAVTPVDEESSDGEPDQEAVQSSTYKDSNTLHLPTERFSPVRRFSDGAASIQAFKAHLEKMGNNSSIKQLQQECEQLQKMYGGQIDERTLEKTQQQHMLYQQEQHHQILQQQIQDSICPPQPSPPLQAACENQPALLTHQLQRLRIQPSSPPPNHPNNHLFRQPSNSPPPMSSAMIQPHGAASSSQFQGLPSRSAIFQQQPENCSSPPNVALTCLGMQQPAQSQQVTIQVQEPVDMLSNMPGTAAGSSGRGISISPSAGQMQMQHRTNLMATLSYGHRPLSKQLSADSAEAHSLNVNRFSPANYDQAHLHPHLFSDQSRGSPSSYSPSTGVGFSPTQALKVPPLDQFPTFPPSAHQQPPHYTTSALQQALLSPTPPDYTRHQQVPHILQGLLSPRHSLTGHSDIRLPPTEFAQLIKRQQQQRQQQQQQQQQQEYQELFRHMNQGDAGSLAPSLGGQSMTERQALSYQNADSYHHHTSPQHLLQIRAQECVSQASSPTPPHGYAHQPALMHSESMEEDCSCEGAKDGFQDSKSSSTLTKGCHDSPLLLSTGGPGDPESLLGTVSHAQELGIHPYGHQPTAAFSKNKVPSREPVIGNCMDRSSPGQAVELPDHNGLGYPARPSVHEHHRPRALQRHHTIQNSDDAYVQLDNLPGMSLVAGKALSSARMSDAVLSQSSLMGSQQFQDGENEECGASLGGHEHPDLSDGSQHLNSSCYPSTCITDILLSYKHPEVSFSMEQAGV
SIK2, sequence (Q9H0K1 whole entry): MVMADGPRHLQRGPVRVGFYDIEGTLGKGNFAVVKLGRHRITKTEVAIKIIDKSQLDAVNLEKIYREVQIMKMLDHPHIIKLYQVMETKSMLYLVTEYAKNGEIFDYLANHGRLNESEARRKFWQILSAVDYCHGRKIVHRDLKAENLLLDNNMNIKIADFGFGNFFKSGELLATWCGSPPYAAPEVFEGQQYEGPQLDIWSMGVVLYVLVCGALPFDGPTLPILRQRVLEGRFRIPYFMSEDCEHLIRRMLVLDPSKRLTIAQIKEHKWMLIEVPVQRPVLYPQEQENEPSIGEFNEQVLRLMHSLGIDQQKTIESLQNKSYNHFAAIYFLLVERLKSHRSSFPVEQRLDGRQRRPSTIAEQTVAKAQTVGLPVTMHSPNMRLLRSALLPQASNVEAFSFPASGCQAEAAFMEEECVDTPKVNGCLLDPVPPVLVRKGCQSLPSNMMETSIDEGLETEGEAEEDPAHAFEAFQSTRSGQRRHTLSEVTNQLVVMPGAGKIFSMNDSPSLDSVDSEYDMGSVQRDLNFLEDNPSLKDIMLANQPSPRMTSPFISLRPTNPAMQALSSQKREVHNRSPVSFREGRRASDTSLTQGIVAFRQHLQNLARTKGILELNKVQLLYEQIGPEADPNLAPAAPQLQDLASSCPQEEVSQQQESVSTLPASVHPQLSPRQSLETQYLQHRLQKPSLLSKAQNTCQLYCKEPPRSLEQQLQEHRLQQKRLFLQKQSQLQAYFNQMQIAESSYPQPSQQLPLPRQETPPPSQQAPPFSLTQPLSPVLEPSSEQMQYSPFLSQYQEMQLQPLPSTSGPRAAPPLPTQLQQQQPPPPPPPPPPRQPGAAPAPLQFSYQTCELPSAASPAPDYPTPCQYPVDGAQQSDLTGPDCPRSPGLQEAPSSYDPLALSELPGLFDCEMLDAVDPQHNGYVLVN

On to `COc1cc(C(F)F)nn1-c1nc(-n2cnc3cc(Nc4ccc(C)nn4)ccc32)ccc1C(C)O` (stereo not drawn) [Example 398, 1-[2-[3-(difluoromethyl)-5-methoxy-pyrazol-1-yl]-6-[5-[(6-methylpyridazin-3-yl)amino]benzimidazol-1-yl]-3-pyridyl]ethanol], for which the values for the pIC50 on SIK1, on SIK2 and on SIK3 were 6.57, 8.41 and 8.70, respectively.
The corresponding values for `COc1cc2ncn(-c3ccc(C(C)O)c(-n4ccc(C(F)(F)F)n4)n3)c2cc1OC` (stereo not drawn) [Example 63, 1-[6-(5,6-Dimethoxybenzimidazol-1-yl)-2-[3-(trifluoromethyl)pyrazol-1-yl]-3-pyridyl]ethanol] are 7.03, 7.46 and 6.82.
For the molecule `Cc1ccc(Nc2ccc3c(c2)ncn3-c2ccc(C(C)O)c(-c3cc(OC(F)F)ncc3C)n2)nn1` (stereo not drawn) [Example 167, 1-[2-[2-(Difluoromethoxy)-5-methyl-4-pyridyl]-6-[5-[(6-methylpyridazin-3-yl)amino]benzimidazol-1-yl]-3-pyridyl]ethanol], the pIC50 at SIK1 is 7.40; at SIK2, 9.05; at SIK3, 8.92.
In the case of `Cc1cc(C#N)nn1-c1nc(-n2cnc3cc(Nc4ccc(C(F)F)nn4)ccc32)ccc1C(C)O` (stereo not drawn) [Example 90, 1-[6-[5-[[6-(Difluoromethyl)pyridazin-3-yl]amino]benzimidazol-1-yl]-3-(1-hydroxyethyl)-2-pyridyl]-5-methyl-pyrazole-3-carbonitrile], the pIC50 was 7.28 at SIK1, 9.05 on SIK2 and 9.30 on SIK3.
Turning to `Cc1ccc(Nc2cc3ncn(-c4ccc(C(C)O)c(-n5nc(C#N)cc5C)n4)c3cc2OC2CCNC2)nn1` (stereo not drawn) [Example 192, 1-[3-(1-Hydroxyethyl)-6-[5-[(6-methylpyridazin-3-yl)amino]-6-pyrrolidin-3-yloxy-benzimidazol-1-yl]-2-pyridyl]-5-methyl-pyrazole-3-carbonitrile], the values for the pIC50 on SIK1, on SIK2 and at SIK3 were 6.71, 8.51 and 8.40, respectively.
The corresponding values for `Cc1ccc(Nc2ccc3c(c2)ncn3-c2ccc(C(C)O)c(-c3cnn(CC(F)(F)F)c3C)n2)nn1` (stereo not drawn) [Example 240, 1-[6-[5-[(6-Methylpyridazin-3-yl)amino]benzimidazol-1-yl]-2-[5-methyl-1-(2,2,2-trifluoroethyl)pyrazol-4-yl]-3-pyridyl]ethanol; formic acid] are 7.37, 9.52 and 9.70.
On to `Cc1ccc(Nc2cc3c(cc2F)ncn3-c2ccc(C(C)O)c(-n3nc(Cl)cc3C)n2)nn1` (stereo not drawn) [Example 354, 1-[2-(3-chloro-5-methyl-pyrazol-1-yl)-6-[5-fluoro-6-[(6-methylpyridazin-3-yl)amino]benzimidazol-1-yl]-3-pyridyl]ethanol], for which the pIC50 is 6.65 on SIK1, 7.10 on SIK2 and 7.12 at SIK3.
Taken in the same sequence, the figures for `COc1cc2ncn(-c3ccc(CO)c(NCCCCO)n3)c2cc1OC` [Example 34, 4-((6-(5,6-Dimethoxy-1H-benzo[d]imidazol-1-yl)-3-(hydroxymethyl)pyridin-2-yl)amino)butan-1-ol] were 6.29, 6.42 and 5.77.
Consider `COc1cc2ncn(-c3ccc(C(C)O)c(-n4nc(C#N)cc4C)n3)c2cc1Nc1ccc(C)nn1` (stereo not drawn) [Example 140, 1-[3-(1-Hydroxyethyl)-6-[5-methoxy-6-[(6-methylpyridazin-3-yl)amino]benzimidazol-1-yl]-2-pyridyl]-5-methyl-pyrazole-3-carbonitrile], for which the pIC50 at SIK1 is 7.29; at SIK2, 7.41; on SIK3, 6.76.

By pIC50 is commonly meant the IC50 on a negative log10 scale, so that one unit is a factor of ten.
